Measured values reported in US6479487B1, “6, 9-disubstituted 2-[trans-(4-aminocyclohexyl)amino] purines” (Aventis Pharmaceuticals Inc., priority 1998, dated 2002).
pIC50: −log10 of the molar value. Several values for one entry are separate records, joined by “and”; a condition that tells them apart may be missing. Equal entries are not always repeated. Structures can show the parent of a compound that is named as a salt. Where two headings read alike, the source gives them in different places.

What was measured:
cdk2/cyclin E = biological target: T1, cdk2/cyclin E (Homo sapiens, UniProt P24941); experiment: Cyclin-Dependent Kinase 2 Assay (cdk2/cyclin E, GST-Rb substrate); assay type: biochemical; conditions: recombinant cdk2/cyclin E, 10 μM ATP, 30 min at 30° C., several values in a cell = separate determinations, read-out: CDK-2 Inhibition IC50
T1 construct: made in house; host or cells: insect cells (baculovirus co-infection)
Procedure: Substrate: GST-Rb as described above for cdk4/cyclin D1
Assay conditions for cdk2/cyclin E were identical to those for cdk4/cyclin D1 including the substrate. The concentration of recombinant cdk2/cyclin E in the assay was 0.1 μg per 100 μl assay. Incubation was for 30 min at 30° C.

PC-3 = experiment: In vitro tumor cell proliferation, PC-3; assay type: cell-based, human; conditions: many values given with an undefined *, read-out: In vitro Tumor Cell Proliferation (IC50, μM) Prostate PC-3
Procedure, shortened: (§1)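 Two read-outs were used: sulforhodamine B after 3 + 4 days of drug with re-dosing at medium change, or CyQUANT after 3 days of drug and freezing of plates at −80° C for at least 30 minutes.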

HT-29 = experiment: In vitro tumor cell proliferation, HT-29; assay type: cell-based, human; conditions: many values given with an undefined *, read-out: In vitro Tumor Cell Proliferation (IC50, μM) Colon HT-29
Procedure, shortened: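 Growth was quantified either with CyQUANT, plates frozen at −80° C after 3 days of drug, or by sulforhodamine B staining of TCA-fixed cells after 3 days of drug plus 4 days with fresh drug. Trypan blue-excluding HT-29 cells were plated overnight at 37° C before dosing.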

DMS-114 = experiment: In vitro tumor cell proliferation, DMS-114; assay type: cell-based, human; conditions: many values given with an undefined *, read-out: In vitro Tumor Cell Proliferation (IC50, μM) Lung DMS-114
Procedure, shortened: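 Human small cell lung carcinoma DMS-114 cells plated overnight, then drug-treated for 3 days, medium and drug renewed, and incubated 4 more days. Growth read by sulforhodamine B staining after TCA fixation; alternatively by CyQUANT after 3 days' drug exposure and freezing at −80 °C.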

DU145 = experiment: In vitro tumor cell proliferation, DU145; assay type: cell-based, human; conditions: many values given with an undefined *, read-out: In vitro Tumor Cell Proliferation (IC50, μM) Prostate DU145
Procedure, shortened: as §1

MDA-MB-231 = experiment: In vitro tumor cell proliferation, MDA-MB-231; assay type: cell-based, human; conditions: sulforhodamine B or CyQUANT assay, many values given with an undefined *, read-out: In vitro Tumor Cell Proliferation (IC50, μM) Breast MDA-MB-231
Procedure, shortened: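 Proliferation quantified by SRB staining of TCA-fixed cells after 3 days of drug plus 4 days with replenished drug, following overnight attachment at 37 °C.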

cdk4/cyclin D1 = biological target: T2, cdk4/cyclin D1 (Homo sapiens, UniProt P11802); experiment: Cyclin-dependent Kinase 4 Assay (cdk4/cyclin D1, GST-Rb substrate); assay type: biochemical; conditions: cdk4/cyclin D1 insect cell lysate, 10 μM ATP, 30 min at 37° C., several values = separate determinations, read-out: CDK4 Inhibition IC50
T2 construct: made in house; host or cells: Sf9 insect cells (Bac-to-Bac baculovirus, pFastBac)
T2 sequence (P11802 whole entry): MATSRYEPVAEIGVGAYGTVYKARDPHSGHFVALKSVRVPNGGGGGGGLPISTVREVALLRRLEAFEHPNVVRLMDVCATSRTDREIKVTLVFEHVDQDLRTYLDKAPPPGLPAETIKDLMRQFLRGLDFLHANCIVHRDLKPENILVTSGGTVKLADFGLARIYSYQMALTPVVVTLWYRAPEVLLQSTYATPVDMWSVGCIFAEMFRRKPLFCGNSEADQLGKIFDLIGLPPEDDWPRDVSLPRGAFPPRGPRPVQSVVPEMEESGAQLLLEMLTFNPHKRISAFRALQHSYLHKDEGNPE
T2 sequence (P24385 whole entry partner): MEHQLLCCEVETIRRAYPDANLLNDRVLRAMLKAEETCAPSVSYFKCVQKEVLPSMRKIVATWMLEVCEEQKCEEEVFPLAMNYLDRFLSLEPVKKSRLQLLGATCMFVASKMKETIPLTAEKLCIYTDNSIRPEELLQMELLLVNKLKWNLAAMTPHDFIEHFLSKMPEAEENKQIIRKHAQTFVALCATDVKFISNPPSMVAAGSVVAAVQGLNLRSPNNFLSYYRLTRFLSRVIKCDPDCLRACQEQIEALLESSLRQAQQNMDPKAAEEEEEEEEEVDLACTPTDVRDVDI
Procedure, shortened: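 IC50 against cdk4 measured by scintillation counting of bead-bound GST-Rb (0.5 μg) after filtration and four TNEN washes. Reaction was 30 min at 37 °C in HEPES pH 7.5 buffer with 10 mM MgCl2 and 1 mM EGTA. Enzyme source was 0.1 μg Sf9 lysate coinfected with cdk4 and cyclin D1.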

Colo-205 = experiment: In vitro tumor cell proliferation, Colo-205; assay type: cell-based; conditions: values given with an undefined *, read-out: In vitro Tumor Cell Proliferation (IC50, μM) Colon Colo-205
Procedure, shortened: as §1

A549 = experiment: In vitro tumor cell proliferation, A549; assay type: cell-based, human; conditions: many values given with an undefined *, read-out: In vitro Tumor Cell Proliferation (IC50, μM) Lung A549
Procedure, shortened: as §1

MDA-MB-435 = experiment: In vitro tumor cell proliferation, MDA-MB-435; assay type: cell-based; conditions: values given with an undefined *, read-out: In vitro Tumor Cell Proliferation (IC50, μM) Breast MDA-MB-435
Procedure, shortened: as §1

[1] = Homo sapiens, MDA-MB-231, MDA-MB-231
[2] = Homo sapiens, COLO 205, Colo-205
[3] = Homo sapiens, MDA-MB-435, MDA-MB-435

| SMILES | pIC50 (cdk2/cyclin E) | IC50 (PC-3; Homo sapiens, PC-3, PC-3) [µM] | IC50 (HT-29; Homo sapiens, HT-29, HT-29) [µM] | IC50 (DMS-114; Homo sapiens, DMS-114, DMS-114) [µM] | IC50 (DU145; Homo sapiens, DU-145, DU145) [µM] | IC50 (MDA-MB-231; [1]) [µM] | pIC50 (cdk4/cyclin D1) | IC50 (Colo-205; [2]) [µM] | IC50 (A549; Homo sapiens, A549, A549) [µM] | IC50 (MDA-MB-435; [3]) [µM] | IC50 (DMS-114; DMS-114, trihydrochloride) | IC50 (DU145; DU145, trihydrochloride) | IC50 (MDA-MB-231; MDA-MB-231, trihydrochloride) | IC50 (MDA-MB-435; MDA-MB-435, trihydrochloride) | further results |
| --- | --- | --- | --- | --- | --- | --- | --- | --- | --- | --- | --- | --- | --- | --- | --- |
| N[C@H]1CC[C@H](Nc2nc(NC3CCN(Cc4c(Cl)cccc4Cl)CC3)c3ncn(C4CCCC4)c3n2)CC1 [Example 45, 2-[Trans-(4-aminocyclohexyl)amino]-6-[4-(1-(2,6-dichlorobenzyl))piperidinylamino]-9-cyclopentylpurine] | 5.96 and 6.05 | 0.63 | 0.71 | 1.3 | 0.51 | 0.89 | 5.17 | 0.53 | 0.46 | 0.96 |  |  |  |  | IC50 (PC-3; PC-3): 0.74 µM; IC50 (HT-29; HT-29): 0.55 µM; IC50 (DMS-114; DMS-114): 0.71 µM; IC50 (DU145; DU145): 0.46 µM; IC50 (MDA-MB-231; MDA-MB-231): 0.71 µM; IC50 (Colo-205; Colo-205): 0.48 µM; IC50 (A549; A549): 0.32 µM; IC50 (MDA-MB-435; MDA-MB-435): 0.75 µM |
| N[C@H]1CC[C@H](Nc2nc(NC3CCN(Cc4ccc(C(F)(F)F)cc4)CC3)c3ncn(C4CCCC4)c3n2)CC1 [Example 46, 2-[Trans-(4-aminocyclohexyl)amino]-6-[4-(1-(4-trifluoromethylbenzyl))piperidinylamino]-9-cyclopentylpurine] | 6.30 and 6.35 |  |  |  |  |  | 4.70 |  |  |  |  |  |  |  | IC50 (PC-3; PC-3): 0.39 µM and 0.46 µM; IC50 (HT-29; HT-29): 0.53 µM and 0.44 µM; IC50 (DMS-114; DMS-114): 0.35 µM and 0.58 µM; IC50 (DU145; DU145): 0.36 µM and 0.49 µM; IC50 (MDA-MB-231; MDA-MB-231): 0.46 µM and 0.53 µM; IC50 (Colo-205; Colo-205): 0.44 µM and 0.46 µM; IC50 (A549; A549): 0.28 µM and 0.33 µM; IC50 (MDA-MB-435; MDA-MB-435): 0.61 µM and 0.62 µM |
| N[C@H]1CC[C@H](Nc2nc(N[C@H]3CC[C@H](O)CC3)c3ncn(C4CCCC4)c3n2)CC1 [Example 145a, Trans-2-[Trans-(4-aminocyclohexyl)amino]-6-[(4-hydroxy)cyclohexylamino]-9-cyclopentylpurine dihydrochloride] | 7.30 | 1.9 | 3.4 | 4.6 | 3.9 | 3 | 5.82 and 5.80 | 1.7 | 4.4 | 3.3 |  |  |  |  | IC50 (PC-3; PC-3, dihydrochloride): 2.1 µM; IC50 (HT-29; HT-29, dihydrochloride): 2.3 µM; IC50 (DMS-114; DMS-114, dihydrochloride): 3.1 µM; IC50 (DU145; DU145, dihydrochloride): 3.8 µM; IC50 (MDA-MB-231; MDA-MB-231, dihydrochloride): 2.9 µM; IC50 (Colo-205; Colo-205, dihydrochloride): 1.6 µM; IC50 (A549; A549, dihydrochloride): 4.8 µM; IC50 (MDA-MB-435; MDA-MB-435, dihydrochloride): 3.8 µM |
| N[C@H]1CC[C@H](Nc2nc(NC3(CO)CCCC3)c3ncn(C4CCCC4)c3n2)CC1 [Example 146, (R,S)-2-[Trans-(4-aminocyclohexyl)amino]-6-[(1-hydroxymethyl)cyclopentylamino]-9-cyclopentylpurine dihydrochloride] | 6.79 | 11 | 16 |  | 12 |  | 5.80 and 6.09 and 6.30 | 12 | 12 |  |  |  |  |  | IC50 (PC-3; PC-3, dihydrochloride): 10 µM; IC50 (HT-29; HT-29, dihydrochloride): 11 µM; IC50 (DMS-114; DMS-114, dihydrochloride): 11 µM; IC50 (DU145; DU145, dihydrochloride): 16 µM; IC50 (MDA-MB-231; MDA-MB-231, dihydrochloride): 12 µM; IC50 (MDA-MB-435; MDA-MB-435, dihydrochloride): 21 µM |
| N[C@H]1CC[C@H](Nc2nc(NC3CCN(Cc4cccc5ccccc45)CC3)c3ncn(C4CCCC4)c3n2)CC1 [Example 147-a, 2-[Trans-(4-aminocyclohexyl)amino]-6-[4-[1-(1-naphthyl)methyl]piperidinylamino)-9-cyclopentylpurine trihydrochloride] | 6.39 and 7.01 and 6.36 | 0.24 | 0.32 | 0.32 | 0.22 | 0.35 | 5.54 and 5.68 | 0.2 | 0.17 | 0.42 | 0.33 µM | 0.33 µM | 0.34 µM | 0.408 µM | IC50 (PC-3; PC-3, trihydrochloride): 0.34 µM |
| N[C@H]1CC[C@H](Nc2nc(NC3CCN(Cc4ccc(C(F)(F)F)cc4C(F)(F)F)CC3)c3ncn(C4CCCC4)c3n2)CC1 [Example 147-aa, 2-[Trans-(4-aminocyclohexyl)amino]-6-[4-[1-(2,4-bis-trifluoromethylbenzyl)]piperidinylamino]-9-cyclopentylpurine trihydrochloride] |  |  |  |  |  |  |  |  |  |  | 2.7 µM and 2.9 µM | 4.4 µM and 4.3 µM | 2.5 µM and 3.1 µM | 5.8 µM and 4.9 µM | pIC50 (cdk2/cyclin E; trihydrochloride): 5.80 and 5.59; IC50 (PC-3; PC-3, trihydrochloride): 3.8 µM and 4.6 µM; IC50 (HT-29; HT-29, trihydrochloride): 2.8 µM and 2.3 µM; pIC50 (cdk4/cyclin D1; trihydrochloride): 5.00 and 5.08; IC50 (Colo-205; Colo-205, trihydrochloride): 4 µM and 2.9 µM; IC50 (A549; A549, trihydrochloride): 4.1 µM and 3.6 µM |
| N[C@H]1CC[C@H](Nc2nc(NC3CCN(Cc4ccccc4OC(F)(F)F)CC3)c3ncn(C4CCCC4)c3n2)CC1 [Example 147-ab, 2-[Trans-(4-aminocyclohexyl)amino]-6-[4-[1-(2-trifluoromethoxybenzyl)]piperidinylamino]-9-cyclopentylpurine trihydrochloride] | 6.60 and 6.05 | 0.69 | 0.73 | 0.74 | 0.59 | 0.62 | 5.35 and 5.57 | 0.43 | 0.33 | 0.84 | 0.64 µM | 0.6 µM | 0.7 µM | 0.91 µM | IC50 (HT-29; HT-29, trihydrochloride): 0.62 µM; IC50 (Colo-205; Colo-205, trihydrochloride): 0.45 µM; IC50 (A549; A549, trihydrochloride): 0.39 µM |
